Values joined by “and” are separate entries in the source; they are usually repeats but may differ in a detail not shown here. Equal entries are not always repeated.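 Results reflect a 48-hour exposure of cells in 96-well plates to compound at five concentrations. Here, GI50 denotes the concentration required for 50% inhibition of growth. TGI marks complete inhibition of growth.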
Legend:
Experiment in all cases: NCI anticancer screen, dose series, 48 h
OVCAR-3 ovarian = system: OVCAR-3 ovarian
HT29 colon = system: HT29 colon
U251 CNS = system: U251 CNS
SNB-75 CNS = system: SNB-75 CNS
MCF7 breast = system: MCF7 breast
HCC-2998 colon = system: HCC-2998 colon
CAKI-1 renal = system: CAKI-1 renal
786-0 renal = system: 786-0 renal
SF-539 CNS = system: SF-539 CNS
A549 NSCLC = system: A549 NSCLC

Row | SMILES | TGI (OVCAR-3 ovarian) | TGI (HT29 colon) | TGI (U251 CNS) | TGI (SNB-75 CNS) | TGI (MCF7 breast) | TGI (HCC-2998 colon) | TGI (CAKI-1 renal) | TGI (786-0 renal) | TGI (SF-539 CNS) | TGI (A549 NSCLC) | GI50 (OVCAR-3 ovarian) | GI50 (HT29 colon) | GI50 (U251 CNS) [µM] | GI50 (SNB-75 CNS) [µM] | GI50 (MCF7 breast) | GI50 (HCC-2998 colon) | GI50 (CAKI-1 renal) [µM] | GI50 (SF-539 CNS) [µM] | GI50 (A549 NSCLC)
1 | CCOC(=O)/C(C#N)=C(/NNc1ccccc1)c1ccncc1C(=O)O | > 100 µM | > 100 µM | > 100 µM | > 100 µM | > 100 µM | > 95.6 µM | > 100 µM | > 100 µM | > 88.3 µM | > 100 µM | – | – | – | – | – | – | – | – | –
2 | Cc1cc(S(=O)(=O)Nc2nc3ccccc3n2-c2ccccc2)c(S)cc1Cl | > 100 µM | – | > 100 µM | > 100 µM | > 100 µM | > 100 µM | > 100 µM | > 100 µM | > 100 µM | > 100 µM | – | – | – | – | – | – | – | – | –
3 | Cc1nn(C)c2nc3ccc(Cl)cc3c(-c3ccccc3)c12 | > 100 µM | > 100 µM | > 100 µM | > 100 µM | > 100 µM | > 100 µM | > 100 µM | > 100 µM | > 100 µM | > 100 µM | – | – | – | – | – | – | – | – | –
4 | COc1cc(OC)cc(-c2n/c(=C\c3c(O)[nH]c4ccc(Cl)cc34)cc3c2=Nc2ccccc2-3)c1 | 5.22 µM | 6.22 µM | 3.22 µM | 39.6 µM | 4.66 µM | 19.5 µM | 30.5 µM | – | 45.8 µM | 11.1 µM | 2.46 µM | 2.72 µM | 1.75 | 16.3 | 1.82 µM | 4.22 µM | 12.9 | 20.4 | 3.21 µM
5 | CC(C)(C)c1cc(C(=O)/C=C/c2ccn[nH]2)cc(C(C)(C)C)c1O | 7.39 µM | 6.59 µM | 3.11 µM | 9.61 µM | 4.78 µM | 3.37 µM | 6.98 µM | 3.05 µM | 9.07 µM | 9.8 µM | – | – | – | – | – | – | – | – | –
6 | CCOC(=O)C(NC(=O)CC)(Nc1ccc(S(=O)(=O)Nc2nc(C)cc(C)n2)cc1)C(F)(F)F (configuration not stated) | > 100 µM | > 100 µM | > 100 µM | > 100 µM | > 100 µM | > 100 µM | > 100 µM | > 100 µM | > 100 µM | > 100 µM | – | – | – | – | – | – | – | – | –
7 | CC(C)(C)OC(=O)NCC(=O)NC1C/C(=N\O)c2sccc21 (configuration not stated) | > 100 µM | > 100 µM | > 100 µM | > 100 µM | > 100 µM | > 100 µM | > 100 µM | – | > 100 µM | > 100 µM | – | – | – | – | – | – | – | – | –
8 | CC(C)C(C/C=C1/CC(CO)(COC(=O)C2CCCCC2)OC1=O)C(C)C (configuration not stated) | 34.5 µM | 75.4 µM | 43.9 µM | 28.8 µM | 36.3 µM | 59.8 µM | 37.8 µM | 26.9 µM | 29.1 µM | 26.4 µM | – | – | – | – | – | – | – | – | –
9 | O=S1(=O)C(c2ccccc2)=C(O)c2ccccc21 | > 100 µM | > 100 µM | > 100 µM | > 100 µM | > 100 µM | > 100 µM | – | > 100 µM | > 100 µM | > 100 µM | – | – | – | – | – | – | – | – | –
10 | COc1cc(C(c2cccc3ccccc23)N2C(=O)CCC2C(=O)NCc2ccccc2)cc(OC)c1OC (configuration not stated) | > 100 µM | > 100 µM | > 100 µM | – | > 100 µM | > 100 µM | > 100 µM | > 100 µM | > 100 µM | > 100 µM | – | – | – | – | – | – | – | – | –
11 | COC(=O)/C=C/c1cc(OC)c2oc(-c3ccc(OC)c(OC)c3)c(C(=O)OC)c2c1 | > 100 µM | > 100 µM | > 100 µM | – | > 100 µM | > 100 µM | > 100 µM | > 100 µM | – | > 100 µM | – | – | – | – | – | – | – | – | –
12 | Nc1ccc(-c2nc3ccc(F)cc3s2)cc1 | 64.4 µM | > 100 µM | > 100 µM | 95 µM | – | 45.3 µM | 95.5 µM | > 100 µM | > 100 µM | > 100 µM | – | – | – | – | – | 17.8 µM | – | – | –
13 | CN(CCc1ccc(Cl)c(Cl)c1)CCN(C)CCN1CCCC1 | 70.4 µM | 12.5 µM | 24.4 µM | 31.5 µM | 26.3 µM | 4.5 µM | 32.1 µM | 21.9 µM | 17.5 µM | 28.3 µM | – | – | – | – | – | – | – | – | –
14 | Oc1nc(N/N=C/c2ccccc2)[nH]c1/C=C1\C=Nc2ccccc21 | > 100 µM | > 100 µM | 51.3 µM | > 100 µM | > 100 µM | – | > 100 µM | > 100 µM | > 100 µM | > 100 µM | – | – | – | – | – | – | – | – | –
15 | CCNc1ncnc2c1nnn2CC | > 100 µM | > 100 µM | > 100 µM | > 100 µM | > 100 µM | > 100 µM | > 100 µM | > 100 µM | > 100 µM | > 100 µM | – | – | – | – | – | – | – | – | –
16 | O=C(N/N=C/c1ccc(Cl)cc1)c1cc(I)cc(I)c1O | > 100 µM | > 100 µM | > 100 µM | > 100 µM | > 100 µM | – | > 100 µM | > 100 µM | > 100 µM | > 100 µM | – | – | – | – | – | – | – | – | –
17 | Cc1c(C#N)c2nnn(-c3ccccc3)c(=O)n2c1-c1ccccc1 | 16.2 µM | – | > 100 µM | 18.2 µM | > 66.6 µM | > 39.4 µM | > 100 µM | 30.1 µM | – | > 45.8 µM | – | – | – | – | – | – | – | – | –
18 | Cc1ccc(OCC2OC(n3cnc4c(Cl)ncnc43)CC2Oc2ccc(C)cc2)cc1 (configuration not stated) | 9.72 µM and 27.7 µM | 3.13 µM and 21.2 µM | 11 µM and > 50.4 µM | 34.3 µM and > 68.7 µM | 12.6 µM and > 58.8 µM | 12.8 µM and 37 µM | 4.18 µM and 5.78 µM | > 73.4 µM and 51.7 µM | 50.6 µM and 36.1 µM | 15.9 µM and 37 µM | 3.16 µM and 8.9 µM | 1.69 µM and 6.15 µM | – | – | 4.44 µM and 21 µM | 5.44 µM and 16.8 µM | – | – | 7.37 µM and 18.9 µM
19 | Cc1cc(C)c2c(=N)c3ccccc3n(CCCCCCO)c2n1 | 25.9 µM | 3.93 µM | 13.8 µM | 5.78 µM | 8.56 µM | 7.07 µM | 8.31 µM | 9.53 µM | 9.48 µM | 17.7 µM | – | – | – | – | – | – | – | – | –
20 | COc1cc(/C=C2\Cc3cc(OC)c(OC)cc3C2=O)cc(OC)c1 | > 100 µM | > 100 µM | > 100 µM | > 100 µM | > 100 µM | – | > 100 µM | > 56.6 µM | > 42.7 µM | > 100 µM | – | – | – | – | – | – | – | – | –
